Test [1] has as its system rat striatal synaptosomes. It counts as cell-based.
In test [2] the test system is rat hippocampal synaptosomes. Particulars: read-out: EC50 for release of hippocampal norepinephrine; cited from earlier work.
The test system of test [3] is rat striatal synaptosomes. Particulars: cited from earlier work.

Where two headings read alike, the source gives them in different places.

With `CNC1(C)C2CCC(C2)C1(C)C` (stereo not shown) [mecamylamine], the “Block of nicotine-stimulated [3H]-dopamine release” value in test [1] was “fully blocked”.

For the molecule `CN1CCCC1c1cccnc1` (stereo not shown) [nicotine], the figures for the EC50 in test [2], in test [3] (read-out: EC50 for increase of [3H]-dopamine release) and in test [3] (read-out: EC50 for release of striatal dopamine) were 6500 nM, 160 nM and 160 nM, respectively.

By EC50 is commonly meant the concentration needed to bring the measured effect to its halfway point.

The record behind these values is patent US6958323B2 (priority 1997, dated 2005).
